The source of these data is patent US9512059B2, “Killing of bed bugs” (BEDOUKIAN RESEARCH, INC., priority 2012, dated 2016).

The series has as its system bed bugs. The series can be described thus: forced exposure toxicity test on treated filter paper circles. It is filed as in vivo, Cimex species. The settings on record: compound diluted 5% in acetone, bed bug mortality at 24 hours. As to the method:
Toxicity of compounds of structure (I) was determined by forced exposure testing under the following protocol. Five filter paper circles were laid on a flat surface and treated with the test compounds. Five replicates of five bed bugs were released onto each of the treated paper circles. Petri dish bottoms with circular openings were placed over the treated paper circles and served as the exposure arenas. The sides of the Petri dish bottoms were also painted with Fluon to prevent the bed bugs from climbing the sides. The bed bugs were thus confined to the treated paper circles for the duration of the test. Observations were made for mortality of the bed bugs at 24 hours.

As to `CCC1CC(=O)C=C(C)C1` (centres unmarked) [3-Methyl-5-Ethyl-2-Cyclohexenone], the “Mortality @ 24 hours” value is 78%.

As for `CCCCC1CC(=O)C=C(C)C1` (centres unmarked) [3-Methyl-5-Butyl-2-Cyclohexen-1-one], the “Mortality @ 24 hours” value is on record as 50%.

As for `CCCC1CC(=O)C=C(C)C1` (centres unmarked) [3-Methyl-5-propyl-2-cyclohexenone], the “Mortality @ 24 hours” value was determined as 100%.

As to `CCCC1CC(C)=CC(O)C1` (centres unmarked) [3-Methyl-5-propyl-2-cyclohexenol], the “Mortality @ 24 hours” value is listed as 60%.

With `CC1=CC(O)CC(CC(C)C)C1` (centres unmarked) [3-Methyl-5-Isobutyl-2-cyclohexenol], the “Mortality @ 24 hours” value was found to be 10%.
